Test results from patent US8871801B2, “Method of treating acquired perforating dermatosis with cantharidin” (priority 2011, dated 2014).

Legend:
[1] = tested on: acquired perforating dermatosis lesions; assay: Topical cantharidin treatment of a patient with acquired perforating dermatosis (case example); assay type: in vivo, human
Description: A person presented a six-month history of pruritic, hyperpigmented papules with central, hyperkeratotic plugs of bilateral lower extremities (FIG. 1). The trunk, head, upper extremities, volar surfaces and mucous membranes were spared. Their past medical history was significant for chronic renal failure treated for the past four years with peritoneal dialysis, a 30-year history of insulin-dependent diabetes mellitus, hypercholesterolemia, hypertension, coronary artery bypass, hypothyroidism, and hyperparathyroidism. There was no family history of similar skin lesions. […] The clinical and histopathologic features supported the diagnosis of an acquired perforating disorder associated with renal disease.
Over the next six months, the patient was treated with intralesional triamcinolone at 10 mg/cc, topical clobetasol, diflorasone, tacrolimus, tazarotene and ammonium lactate. They declined narrowband UVB phototherapy. They were also given oral hydroxine and fexofenadine for their pruritus.
While a therapy of fexofenadine […] bid, ammonium lactate 12% cream bid, and tazarotene 0.1% cream qd were continued, cantharidin at 0.7 wt % (Canthacur® Pharmascience Inc., Montreal, Canada) was applied to lesions on the right medial calf. Cantharidin was applied for eight hours under occlusion. The vehicle was a solution containing cantharidin 0.7 wt % in acetone, castor oil, collodion, ethoxyethanol, ethyl cellulose, and polyoxyethylene octyl phenol. “bid” means twice per day. “qd” means once per day.
The film was then occluded using Blenderm® tape, which was kept on for 8 hours before it was washed off. Within 2 days, multiple bullae formed at the sites of cantharidin application (FIG. 2). There was vesicle formation at site of cantharidin application. The patient reported mild pain at these sites for the first 2 days. A week after application, a biopsy of the blistered lesion was taken. […] The blister roofs were then removed by paring them with a 15-blade at the edge of the lesion to find the blister plane and then lifting upwards. […] The lichenified papules and hyperkeratotic cores were no longer present and the leg was smooth.
Pruritus was resolved in the treated lesions. Cantharidin was subsequently applied under Tegaderm® dressing (3M Corp.) occlusion to multiple lesions of both legs. […] In a five-month follow up, the patient reported no pruritus on the treated lesions. Treated lesions were smooth. […] Cantharidin provides symptomatic relief but may not prevent the formation of new lesions.

skin = details: general statement in the description; cited from earlier work

C[C@@]12C(=O)OC(=O)[C@]1(C)[C@H]1CC[C@@H]2O1 [cantharidin, Cantharidin]
biopsy of the blistered lesion (histology) ([1]; a week after application of cantharidin 0.7 wt %): focal acantholysis and scattered necrotic keratinocytes
pruritus in the treated lesions ([1]; after cantharidin 0.7 wt % treatment and debridement): resolved
time to formation of multiple bullae at the sites of cantharidin application ([1]; cantharidin 0.7 wt % solution, lesions on right medial calf, 8 hours under occlusion (Blenderm tape)): ≤ 2 days
pain reported by the patient at application sites ([1]; cantharidin 0.7 wt %, 8 hours under occlusion, first 2 days): mild pain
effectiveness of treatment on multiple lesions of both legs ([1]; cantharidin applied under Tegaderm dressing occlusion): effective in most lesions
appearance of treated lesions at follow up ([1]; five-month follow up): smooth
formation of new lesions at follow up ([1]; five-month follow up): A few new lesions formed
pruritus on the treated lesions at follow up ([1]; five-month follow up): no pruritus
time to blister formation after topical treatment (skin): 24 to 48 h
